# According to patent US4939274A, “Hydroxybutenolide derivatives, production and use thereof” (Takeda Chemical Industries, Ltd., priority 1986, dated 1990):
# What was measured:
# [1] = test system: lipid peroxide formation in rat brain tissue homogenate; assay: Activity to inhibit lipid peroxide formation in rat brain tissue homogenate (TBA method); format: biochemical; details: 10^-5 M; 5% rat brain homogenate, 37° C., 1 hour; n=3, mean; vs. DMSO reference
# Procedure: Male SD rats (12-week-old) were subjected to exsanguination under anesthesia with pentobarbital, then the brain was excised. The brain tissue was homogenized in a phosphate buffer (pH 7.4) to prepare a 5% homogenate. After incubation of the homogenate at 37° C. for 1 hour, the amount of lipid peroxides formed therein was determined by the thiobarbituric acid (TBA) method in accordance with the report of Ohkawa et al. on Analytical Biochemistry, 95, 351, (1979). The test drug was added to the 5% homogenate before incubation so as to make the final concentration be 10^-5 M The activity to inhibit the formation of lipid peroxide was compared with that of the reference group to which was added the solvent (DMSO), and shown by % inhibition.
# mice = assay: Acute toxicity in mice; format: in vivo; details: oral, 300 and 1000 mg/kg
# Procedure: Male Crj-ICR mice (4-week-old, 21 to 26 g) were used. The animals, divided into groups, each consisting of six mice, were administered orally with compounds (4-c, 4-h) at the dosages of 300 and 1000 mg/kg, respectively. Then, each group was housed in a cage and observed for 24 hours.
# The test drugs were suspended in gum arabic and administered at a volume of 0.1 ml/10 g.
# [2] = test system: ventricular arrhythmia during coronary artery occlusion-reperfusion in rat hearts; assay: Activity to inhibit occurrence of ventricular arrhythmia during coronary artery occlusion-reperfusion in rat hearts; format: in vivo; details: 50 mg/kg, oral; for Ventricular fibrillation, Incidence (10 min.) / Ventricular tachycardia, Incidence (10 min.): 10 min. observation; for Ventricular fibrillation, Incidence (10 min.): control 4.1 ± 0.7; for Ventricular tachycardia, Incidence (10 min.): control 11.5 ± 5.0; for Ventricular tachycardia, Duration / Ventricular fibrillation, Duration: average ± SEM; for Ventricular tachycardia, Duration: control 26.5 ± 6.8; for Ventricular fibrillation, Duration: control 74.2 ± 30.8; for Exrasystole: control 11.0 ± 4.0; for Mortality: killed/tested animals, control 2/18
# Excerpt: Male SD rats (9- to 13-week old, 250 to 370 g) were used. The animals were subjected to thoractonomy under artificial respiration while anesthesia was maintained by administering pentobarbital. […] By recording standard limb lead II electrocardiograms, occurrence of ventricular arrhythmia was examined.
# Incidences of ventricular fibrillation and ventricular tachycardia are shown by the percentage of the number of animals presenting the symptoms relative to the number of animals subjected to the test, and the duration of the symptoms was shown in average ±SEM by seconds. Extrasystole is shown by the number of systole/min., and the mortality is shown by the percentage of the number of killed animals relative to the number of test animals.
smiles,measurement,setting,value
CCCCCOc1ccc(C2=C(O)COC2=O)cc1 [Compound 4-a],Inhibition rate (lipid peroxide formation),[1],57.1%
CCCCCCCOc1ccc(C2=C(O)COC2=O)cc1 [Compound 4-b],Inhibition rate (lipid peroxide formation),[1],100.0%
CCCCCCCCCCOc1ccc(C2=C(O)C(C)OC2=O)cc1 (stereo not shown) [Compound 4-d],Inhibition rate (lipid peroxide formation),[1],100.0%
CCCCCCCCCCOc1ccc(C2=C(O)C(c3ccccc3)OC2=O)cc1 (stereo not shown) [Compound 4-e],Inhibition rate (lipid peroxide formation),[1],100.0%
CCCCCCCCCCCOc1ccc(C2=C(O)COC2=O)cc1 [Compound 4-f],Inhibition rate (lipid peroxide formation),[1],89.7%
"CCCCCCCCCCCOc1ccc(C2=C(O)C(c3ccccc3)OC2=O)cc1 (stereo not shown) [Compound 4-g, 2-(4-undecyloxyphenyl)-3-hydroxy-4-phenyl-2-buten-4-olide]",Inhibition rate (lipid peroxide formation),[1],100.0%
"CCCCCCCCCCCCOc1ccc(C2=C(O)COC2=O)cc1 [Compound 4-h, 2-(4-dodecyloxyphenyl)-3-hydroxy-2-buten-4-olide]",Inhibition rate (lipid peroxide formation),[1],100.0%
same,recovery from sedation and ptosis,mice,≤ 3 h
same,"state of sedation and ptosis, animals affected",mice; six mice per group,half number of the test animals
CCCCCCCCCCCCOc1ccc(C2=C(O)C(C)OC2=O)cc1 (stereo not shown) [Compound 4-i],Inhibition rate (lipid peroxide formation),[1],100.0%
CCCCCCCCCCCCCCOc1ccc(C2=C(O)COC2=O)cc1 [Compound 4-j],Inhibition rate (lipid peroxide formation),[1],100.0%
CCCCCCCCCCCCCCCCCCOc1ccc(C2=C(O)COC2=O)cc1 [Compound 4-k],Inhibition rate (lipid peroxide formation),[1],80.1%
"O=C1O[C@H]([C@@H](O)CO)C(O)=C1O [Vitamin C, ascorbic acid]",effect on ventricular arrhythmia,[2],no significant effect
same,"Ventricular fibrillation, Incidence (10 min.)",[2],5.4 ± 0.8
same,"Ventricular tachycardia, Incidence (10 min.)",[2],9.5 ± 1.8
same,"Ventricular tachycardia, Duration",[2],12.0 ± 2.9 s
same,"Ventricular fibrillation, Duration",[2],74.1 ± 36.0 s
same,Exrasystole,[2],11.0 ± 0.8 times/min.
same,Mortality,[2],1/12
same,Inhibition rate (lipid peroxide formation),[1],-71.6%
"Cc1c(C)c2c(c(C)c1O)CC[C@@](C)(CCC[C@H](C)CCC[C@H](C)CCCC(C)C)O2 [Vitamin E, α-tocopherol]",effect on ventricular arrhythmia,[2],no significant effect
same,"Ventricular fibrillation, Incidence (10 min.)",[2],2.0 ± 0.7
same,"Ventricular tachycardia, Incidence (10 min.)",[2],3.7 ± 1.5
same,"Ventricular tachycardia, Duration",[2],22.3 ± 9.7 s
same,"Ventricular fibrillation, Duration",[2],43.4 ± 36.0 s
same,Exrasystole,[2],7.0 ± 4.1 times/min.
same,Mortality,[2],1/10
same,Inhibition rate (lipid peroxide formation),[1],44.9%
